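1) Cells in 96-well plates. 2) Compound, 48 h, 5 concentrations. 3) Linear interpolation between surrounding doses. 4) Unreached endpoint = highest concentration. TGI: concentration producing complete growth inhibition.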
Legend:
Experiment in all cases: NCI tumour cell line growth inhibition, 48 h
786-0 renal = test system: 786-0 renal
A498 renal = test system: A498 renal
A549 NSCLC = test system: A549 NSCLC
ACHN renal = test system: ACHN renal
BT-549 breast = test system: BT-549 breast
CAKI-1 renal = test system: CAKI-1 renal
CCRF-CEM leukemia = test system: CCRF-CEM leukemia
COLO 205 colon = test system: COLO 205 colon
DU-145 prostate = test system: DU-145 prostate
EKVX NSCLC = test system: EKVX NSCLC
HCC-2998 colon = test system: HCC-2998 colon
HCT-116 colon = test system: HCT-116 colon
HCT-15 colon = test system: HCT-15 colon
HOP-62 NSCLC = test system: HOP-62 NSCLC
HOP-92 NSCLC = test system: HOP-92 NSCLC
HS 578T breast = test system: HS 578T breast
HT29 colon = test system: HT29 colon
IGROV1 ovarian = test system: IGROV1 ovarian
K-562 leukemia = test system: K-562 leukemia
KM12 colon = test system: KM12 colon
M14 melanoma = test system: M14 melanoma
MALME-3M melanoma = test system: MALME-3M melanoma
MCF7 breast = test system: MCF7 breast
MDA-MB-231 breast = test system: MDA-MB-231 breast
MDA-MB-435 = test system: MDA-MB-435
MDA-N = test system: MDA-N
MOLT-4 leukemia = test system: MOLT-4 leukemia
NCI-H23 lung = test system: NCI-H23 lung
NCI-H460 lung = test system: NCI-H460 lung
NCI-H522 lung = test system: NCI-H522 lung
NCI/ADR-RES ovarian = test system: NCI/ADR-RES ovarian
OVCAR-3 ovarian = test system: OVCAR-3 ovarian
OVCAR-4 ovarian = test system: OVCAR-4 ovarian
OVCAR-5 ovarian = test system: OVCAR-5 ovarian
OVCAR-8 ovarian = test system: OVCAR-8 ovarian
PC-3 prostate = test system: PC-3 prostate
RPMI-8226 leukemia = test system: RPMI-8226 leukemia
RXF 393 renal = test system: RXF 393 renal
SF-268 CNS = test system: SF-268 CNS
SF-295 CNS = test system: SF-295 CNS
SK-MEL-2 melanoma = test system: SK-MEL-2 melanoma
SK-MEL-28 melanoma = test system: SK-MEL-28 melanoma
SK-MEL-5 melanoma = test system: SK-MEL-5 melanoma
SK-OV-3 ovarian = test system: SK-OV-3 ovarian
SNB-19 CNS = test system: SNB-19 CNS
SNB-75 CNS = test system: SNB-75 CNS
SW-620 colon = test system: SW-620 colon
TK-10 renal = test system: TK-10 renal
U251 CNS = test system: U251 CNS
UACC-257 melanoma = test system: UACC-257 melanoma
UACC-62 melanoma = test system: UACC-62 melanoma
UO-31 renal = test system: UO-31 renal
HL-60(TB) leukemia = test system: HL-60(TB) leukemia
LOX IMVI melanoma = test system: LOX IMVI melanoma
NCI-H226 lung = test system: NCI-H226 lung
SF-539 CNS = test system: SF-539 CNS
SN12C renal = test system: SN12C renal
SR leukemia = test system: SR leukemia

Measured: TGI

Cc1cc(-c2ccc[nH]2)on1
> 100 µM: 786-0 renal | A498 renal | A549 NSCLC | ACHN renal | BT-549 breast | CAKI-1 renal | CCRF-CEM leukemia | COLO 205 colon | DU-145 prostate | EKVX NSCLC | HCC-2998 colon | HCT-116 colon | HCT-15 colon | HOP-62 NSCLC | HOP-92 NSCLC | HS 578T breast | HT29 colon | IGROV1 ovarian | K-562 leukemia | KM12 colon | M14 melanoma | MALME-3M melanoma | MCF7 breast | MDA-MB-231 breast | MDA-MB-435 | MDA-N | MOLT-4 leukemia | NCI-H23 lung | NCI-H460 lung | NCI-H522 lung | NCI/ADR-RES ovarian | OVCAR-3 ovarian | OVCAR-4 ovarian | OVCAR-5 ovarian | OVCAR-8 ovarian | PC-3 prostate | RPMI-8226 leukemia | RXF 393 renal | SF-268 CNS | SF-295 CNS | SK-MEL-2 melanoma | SK-MEL-28 melanoma | SK-MEL-5 melanoma | SK-OV-3 ovarian | SNB-19 CNS | SNB-75 CNS | SW-620 colon | TK-10 renal | U251 CNS | UACC-257 melanoma | UACC-62 melanoma | UO-31 renal

Cc1cc(C)c2ccc(N3CCNCC3)nc2n1
> 100 µM: 786-0 renal | A549 NSCLC | ACHN renal | BT-549 breast | CAKI-1 renal | CCRF-CEM leukemia | COLO 205 colon | DU-145 prostate | EKVX NSCLC | HCC-2998 colon | HCT-116 colon | HCT-15 colon | HL-60(TB) leukemia | HOP-62 NSCLC | HOP-92 NSCLC | HS 578T breast | HT29 colon | IGROV1 ovarian | K-562 leukemia | KM12 colon | LOX IMVI melanoma | M14 melanoma | MALME-3M melanoma | MCF7 breast | MDA-MB-231 breast | MDA-MB-435 | MDA-N | MOLT-4 leukemia | NCI-H226 lung | NCI-H23 lung | NCI-H460 lung | NCI-H522 lung | NCI/ADR-RES ovarian | OVCAR-3 ovarian | OVCAR-4 ovarian | OVCAR-5 ovarian | OVCAR-8 ovarian | PC-3 prostate | RPMI-8226 leukemia | SF-268 CNS | SF-295 CNS | SF-539 CNS | SK-MEL-2 melanoma | SK-MEL-28 melanoma | SK-OV-3 ovarian | SN12C renal | SNB-19 CNS | SNB-75 CNS | SR leukemia | SW-620 colon | TK-10 renal | U251 CNS | UACC-257 melanoma | UACC-62 melanoma | UO-31 renal

Reference: PubChem BioAssay (NCI)
